The values below come from paper PMC6973020, “Quinoline‐Conjugated Ruthenacarboranes: Toward Hybrid Drugs with a Dual Mode of Action” (Chemmedchem, 2019).

In one data set the test system is LN229 human glioblastoma. The experiment in a line: Crystal violet (CV) cell viability assay, LN229. The settings on record: CV assay, 72 h; read-out: IC50 LN229. Type of data set: cell-based. An excerpt:
(§1) Thus, care must be taken when comparing their biological activities with those of our previous studies, even with the same cell line, because the covalent vs. non‐covalent combination of drugs might imply different mechanisms of action in the cell.44 Here, we studied the in vitro activity of ruthenacarborane 3, i. e. free acid, and its 8‐hydroxyquinolyl (4) and 4‐{(7‐chloroquinolin‐4‐yl)oxy}butanol‐1‐yl (5) esters, against a panel of cancer cell lines (B16 mouse melanoma, A375 human skin melanoma, MCF‐7 human breast adenocarcinoma, LN229 human glioblastoma, U251 human glioma). Human fibroblast cell line MRC‐5, murine microglial cell line BV‐2 as well as peritoneal exudate cells (Mph), were chosen as models for non‐malignant cells. […] On the other side, we wanted to assess the reproducibility of the viability data, under either controlled (with BSA) or uncontrolled (without BSA) conditions, in two sets of independent assays. […] Cells were exposed to 3–5 for 72 h, after which cell viability was determined via 3‐(4,5‐dimethylthiazol‐2‐yl)‐2,5‐diphenyltetrazolium bromide (MTT) and crystal violet (CV) assays, in parallel (Table 2). Cisplatin was also tested as reference.
(§2) Preparation of drug solutions. […] Stock solution of cisplatin was prepared in DMF (10 mM) immediately before use. A stock solution of BSA in PBS was prepared at 1.28 mM concentration, and stored at 4 °C in the dark. […] Alternatively, 3 or 4 (DMSO stock solution) were added to the BSA solution in PBS, always with a 10 : 1 molar ratio of BSA to ruthenacarborane. The BSA−ruthenacarborane solutions were incubated 0.5–1 h at room temperature, then diluted with cell culture medium to the desired final concentrations. Final concentrations of 3 and 4 were the same as for the BSA‐free formulation. Final DMSO was 0.02–0.5 vol %.
Colorimetric assays for cellular viability. […] For counting the number of attached (viable) cells, cells were fixed with 4 % (w/v) paraformaldehyde for 10 min at room temperature, and subsequently stained for 15 min with […] crystal violet (CV) solution. Cells were then washed with tap water, dried in air, and the CV dye was dissolved in 33 % (w/v) acetic acid solution. For the detection of mitochondrial respiration, cells were cultivated in MTT staining solution (0.5 mg mL^−1) for approximately 1 h. The dye was then discarded, and the formed formazan (purple) was dissolved in DMSO. The absorbance was measured with an automated microplate reader at λmax 540 nm, with the reference λmax 670 nm. Untreated cells or cells treated only with BSA (control) were also measured, as reference for BSA‐free and BSA‐containing drug formulations, respectively. For determination of the role of autophagy specific inhibitors, CQ or 3‐MA, were applied at a concentration of 20 μM and 0.5 mM, respectively, and the cells were stained with CV dye. Cell viability is expressed as percentage (%) relative to control (untreated cultures).58 Experiments were run in three independent replicates. […] Non‐linear regression analyses of the obtained results was done using GraphPad Prism software to calculate IC50 values.
mouse microglial cell line BV‐2 was a kind gift from Dr. Irena Lavrnja, Institute for Biological Research
“Siniša Stanković” (University of Belgrade).

A further data set concerns B16 mouse melanoma. Put plainly: MTT cell viability assay, B16. The note with it: 72 h. It counts as cell-based.
Source text: as §1, §2
(§3) Colorimetric assays for cellular viability. […] For counting the number of attached (viable) cells, cells were fixed with 4 % (w/v) paraformaldehyde for 10 min at room temperature, and subsequently stained for 15 min with […] crystal violet (CV) solution. Cells were then washed with tap water, dried in air, and the CV dye was dissolved in 33 % (w/v) acetic acid solution. For the detection of mitochondrial respiration, cells were cultivated in MTT staining solution (0.5 mg mL^−1) for approximately 1 h. The dye was then discarded, and the formed formazan (purple) was dissolved in DMSO. The absorbance was measured with an automated microplate reader at λmax 540 nm, with the reference λmax 670 nm. Untreated cells or cells treated only with BSA (control) were also measured, as reference for BSA‐free and BSA‐containing drug formulations, respectively. […] Cell viability is expressed as percentage (%) relative to control (untreated cultures).58 Experiments were run in three independent replicates. […]
On the technique in general: Tetrazolium assays rely on reduction of a dye to a coloured formazan, in cell work by metabolically active cells.

Data set [1] is described as follows: Nanoparticle Tracking Analysis (NTA) in PBS/DMSO, with and without BSA. It counts as physicochemical. The note with it: PBS, without BSA, 20 μM, 25 °C. On the procedure: Nanoparticle Tracking Analysis (NTA). 3 and 4 were analyzed via NTA to study the modulation of self‐assembly behavior in PBS/DMSO mixture (pH 7.4), with and without BSA, in an analogous way as described previously.9 Samples of 3 and 4 in PBS/DMSO were prepared as described above for UV‐vis measurements. The solutions were measured 30 min after preparation. Samples of BSA−3 and BSA−4 were prepared with two different BSA:ruthenacarborane ratios, namely 10 : 1 and 1 : 1. Stock solutions of BSA in PBS ([BSA]PBS=1.128 mM) were diluted to final concentrations of 200 or 20 μM with PBS (Vfin=5 mL), then an aliquot of the stock solution of 3 or 4 was added, so that the final concentration of metallacarborane was 20 μM. Content of DMSO was adjusted to 1 vol % (considering the amount of DMSO from the stock solutions) before addition of the ruthenacarborane, in all samples. The solutions of BSA−ruthenacarborane were measured 3.5–6 h after preparation. BSA alone in PBS/DMSO was also measured, as blank, using the same capture and processing parameters as for the respective BSA−metallacarborane samples, for direct comparison. All NTA measurements were performed at 25±0.1 °C. Each sample was measured in five independent captures. The time of each capture was set to 60 s.

Another data set relates to A375 human skin melanoma. Put plainly: Crystal violet (CV) cell viability assay, A375. Type of data set: cell-based. The note with it: 72 h.
Source text: as §1, §2, §3

As a reminder, the IC50 is the concentration needed to halve the response being measured. Take “closo‐ [Compound 3, closo‐ [3‐(η^6‐p‐Cymene)‐1‐(CH2COOH)‐3,1,2‐RuC2B9H10]]”: the IC50 is 80 ± 7.7 µM in the data set with LN229 human glioblastoma, 19.4 ± 0.9 µM in the data set with B16 mouse melanoma and 18.7 ± 1.8 µM in the data set with A375 human skin melanoma. The “concentration of self‐assemblies” value in data set [1] is on record as 10^6–10^7 particles mL^−1.
Regarding “closo ‐[3‐(η^6‐p‐Cymene)‐1‐(quinolin‐8‐yl‐acetate)‐3,1,2‐RuC2B9H10] [Compound 4]”, the values for the IC50 in the data set with LN229 human glioblastoma, with B16 mouse melanoma and in the data set on A375 human skin melanoma were 33.4 ± 3.5 µM, 20.4 ± 2.1 µM and 14.9 ± 2.1 µM, respectively. Further, the “concentration of self‐assemblies” value in data set [1] was 10^6–10^7 particles mL^−1.
